Values quoted from earlier work in patent publication US7413690B1, “Process and apparatus for producing spherical pellets using molten solid matrices” (The University of Mississippi, priority 2003, dated 2008).

Row | Compound | water solubility (in words)
1 | C[C@@H]1C[C@H]2[C@@H]3CCC4=CC(=O)C=C[C@]4(C)[C@@]3(F)[C@@H](O)C[C@]2(C)[C@@]1(O)C(=O)CO [Dexamethasone] | water insoluble
2 | Cn1c(=O)c2[nH]cnc2n(C)c1=O [theophylline] | water soluble
